Results taken from the NIST ThermoML archive (doi:10.1021/je800251v).
Numbers after ± are expanded uncertainties.

Conditions: Liquid

CCCC(=O)OCC [ethyl butanoate]
Conditions	mass density [kg/m3]
298.15 K, 100 kPa	873.3 ± 0.8
298.15 K, 1000 kPa	874.1 ± 0.9
298.15 K, 2000 kPa	875 ± 0.9
298.15 K, 3000 kPa	875.9 ± 0.9
298.15 K, 3100 kPa	876 ± 0.9
298.15 K, 5000 kPa	877.5 ± 1
298.15 K, 10000 kPa	881.5 ± 1.2
298.15 K, 15000 kPa	885.3 ± 1.3
298.15 K, 20000 kPa	889 ± 1.4
298.15 K, 25000 kPa	892.5 ± 1.6
298.15 K, 30000 kPa	896.9 ± 1.7
298.15 K, 35000 kPa	901.4 ± 1.8
303.15 K, 100 kPa	868.1 ± 0.8
303.15 K, 1000 kPa	868.9 ± 0.9
303.15 K, 2000 kPa	869.8 ± 0.9
303.15 K, 3000 kPa	870.7 ± 0.9
303.15 K, 3100 kPa	870.7 ± 0.9
303.15 K, 5000 kPa	872.4 ± 1
303.15 K, 10000 kPa	876.5 ± 1.2
303.15 K, 15000 kPa	880.4 ± 1.3
303.15 K, 20000 kPa	884.1 ± 1.5
303.15 K, 25000 kPa	887.8 ± 1.6
303.15 K, 30000 kPa	892.3 ± 1.7
303.15 K, 35000 kPa	896.9 ± 1.8
308.15 K, 100 kPa	862.6 ± 0.8
308.15 K, 1000 kPa	863.5 ± 0.9
308.15 K, 2000 kPa	864.4 ± 0.9
308.15 K, 3000 kPa	865.3 ± 1
308.15 K, 3100 kPa	865.4 ± 1
308.15 K, 5000 kPa	867.1 ± 1
308.15 K, 10000 kPa	871.4 ± 1.2
308.15 K, 15000 kPa	875.5 ± 1.4
308.15 K, 20000 kPa	879.4 ± 1.5
308.15 K, 25000 kPa	883.1 ± 1.7
308.15 K, 30000 kPa	887.8 ± 1.8
308.15 K, 35000 kPa	892.5 ± 1.9
313.15 K, 100 kPa	857.3 ± 0.9
313.15 K, 1000 kPa	858.2 ± 0.9
313.15 K, 2000 kPa	859.1 ± 0.9
313.15 K, 3000 kPa	860.1 ± 1
313.15 K, 3100 kPa	860.2 ± 1
313.15 K, 5000 kPa	861.9 ± 1.1
313.15 K, 10000 kPa	866.3 ± 1.2
313.15 K, 15000 kPa	870.5 ± 1.4
313.15 K, 20000 kPa	874.5 ± 1.6
313.15 K, 25000 kPa	878.4 ± 1.7
313.15 K, 30000 kPa	883.2 ± 1.8
313.15 K, 35000 kPa	888.1 ± 2
318.15 K, 100 kPa	851.9 ± 0.9
318.15 K, 1000 kPa	852.8 ± 0.9
318.15 K, 2000 kPa	853.8 ± 1
318.15 K, 3000 kPa	854.8 ± 1
318.15 K, 3100 kPa	854.9 ± 1
318.15 K, 5000 kPa	856.7 ± 1.1
318.15 K, 10000 kPa	861.3 ± 1.3
318.15 K, 15000 kPa	865.8 ± 1.4
318.15 K, 20000 kPa	869.9 ± 1.6
318.15 K, 25000 kPa	874.1 ± 1.8
318.15 K, 30000 kPa	879 ± 1.9
318.15 K, 35000 kPa	884.1 ± 2
323.15 K, 100 kPa	846.7 ± 0.9
323.15 K, 1000 kPa	847.4 ± 0.9
323.15 K, 2000 kPa	848.4 ± 1
323.15 K, 3000 kPa	849.5 ± 1
323.15 K, 3100 kPa	849.6 ± 1
323.15 K, 5000 kPa	851.7 ± 1.1
323.15 K, 10000 kPa	856.7 ± 1.3
323.15 K, 15000 kPa	861.1 ± 1.5
323.15 K, 20000 kPa	865.4 ± 1.6
323.15 K, 25000 kPa	869.4 ± 1.8
323.15 K, 30000 kPa	874.5 ± 1.9
323.15 K, 35000 kPa	879.7 ± 2.1
328.15 K, 100 kPa	841.4 ± 0.9
328.15 K, 1000 kPa	842 ± 0.9
328.15 K, 2000 kPa	843.3 ± 1
328.15 K, 3000 kPa	844.5 ± 1
328.15 K, 3100 kPa	844.6 ± 1
328.15 K, 5000 kPa	846.6 ± 1.1
328.15 K, 10000 kPa	851.5 ± 1.3
328.15 K, 15000 kPa	856.2 ± 1.5
328.15 K, 20000 kPa	860.5 ± 1.7
328.15 K, 25000 kPa	864.8 ± 1.9
328.15 K, 30000 kPa	870 ± 2
328.15 K, 35000 kPa	875.3 ± 2.1
333.15 K, 100 kPa	835.8 ± 0.9
333.15 K, 1000 kPa	837 ± 1
333.15 K, 2000 kPa	838.1 ± 1
333.15 K, 3000 kPa	839.2 ± 1.1
333.15 K, 3100 kPa	839.3 ± 1.1
333.15 K, 5000 kPa	841.2 ± 1.1
333.15 K, 10000 kPa	846.3 ± 1.3
333.15 K, 15000 kPa	851.1 ± 1.5
333.15 K, 20000 kPa	855.6 ± 1.7
333.15 K, 25000 kPa	860.1 ± 1.9
333.15 K, 30000 kPa	865.4 ± 2
333.15 K, 35000 kPa	870.8 ± 2.2
338.15 K, 100 kPa	830.3 ± 0.9
338.15 K, 1000 kPa	831.5 ± 1
338.15 K, 2000 kPa	832.6 ± 1
338.15 K, 3000 kPa	833.8 ± 1.1
338.15 K, 3100 kPa	833.9 ± 1.1
338.15 K, 5000 kPa	835.9 ± 1.2
338.15 K, 10000 kPa	841.2 ± 1.4
338.15 K, 15000 kPa	846.2 ± 1.6
338.15 K, 20000 kPa	850.8 ± 1.8
338.15 K, 25000 kPa	855.5 ± 1.9
338.15 K, 30000 kPa	861 ± 2.1
338.15 K, 35000 kPa	866.5 ± 2.2
343.15 K, 100 kPa	824.8 ± 1
343.15 K, 1000 kPa	825.9 ± 1
343.15 K, 2000 kPa	827.1 ± 1
343.15 K, 3000 kPa	828.3 ± 1.1
343.15 K, 3100 kPa	828.4 ± 1.1
343.15 K, 5000 kPa	830.7 ± 1.2
343.15 K, 10000 kPa	836.2 ± 1.4
343.15 K, 15000 kPa	841.4 ± 1.6
343.15 K, 20000 kPa	846.1 ± 1.8
343.15 K, 25000 kPa	850.1 ± 2
343.15 K, 30000 kPa	855.7 ± 2.2
343.15 K, 35000 kPa	861.8 ± 2.3
348.15 K, 100 kPa	819.1 ± 1
348.15 K, 1000 kPa	820.3 ± 1
348.15 K, 2000 kPa	821.6 ± 1.1
348.15 K, 3000 kPa	822.9 ± 1.1
348.15 K, 3100 kPa	823 ± 1.1
348.15 K, 5000 kPa	825.1 ± 1.2
348.15 K, 10000 kPa	830.9 ± 1.4
348.15 K, 15000 kPa	836.2 ± 1.6
348.15 K, 20000 kPa	841.1 ± 1.9
348.15 K, 25000 kPa	846 ± 2
348.15 K, 30000 kPa	851.8 ± 2.2
348.15 K, 35000 kPa	857.7 ± 2.4
353.15 K, 100 kPa	813.5 ± 1
353.15 K, 1000 kPa	814.7 ± 1
353.15 K, 2000 kPa	816.1 ± 1.1
353.15 K, 3000 kPa	817.4 ± 1.2
353.15 K, 3100 kPa	817.5 ± 1.1
353.15 K, 5000 kPa	819.8 ± 1.2
353.15 K, 10000 kPa	825.7 ± 1.5
353.15 K, 15000 kPa	831.2 ± 1.7
353.15 K, 20000 kPa	836.3 ± 1.9
353.15 K, 25000 kPa	841.4 ± 2.1
353.15 K, 30000 kPa	847.4 ± 2.3
353.15 K, 35000 kPa	853.4 ± 2.4
363.15 K, 100 kPa	799.9 ± 1
363.15 K, 1000 kPa	801.4 ± 1.1
363.15 K, 2000 kPa	803 ± 1.1
363.15 K, 3000 kPa	804.5 ± 1.2
363.15 K, 3100 kPa	804.7 ± 1.3
363.15 K, 5000 kPa	807.9 ± 1.3
363.15 K, 10000 kPa	814.4 ± 1.5
363.15 K, 15000 kPa	820.7 ± 1.8
363.15 K, 20000 kPa	826.7 ± 2
363.15 K, 25000 kPa	832.4 ± 2.2
363.15 K, 30000 kPa	837.7 ± 2.4
363.15 K, 35000 kPa	842.7 ± 2.5
373.15 K, 100 kPa	788.5 ± 1.1
373.15 K, 1000 kPa	790.1 ± 1.1
373.15 K, 2000 kPa	791.7 ± 1.2
373.15 K, 3000 kPa	793.4 ± 1.2
373.15 K, 3100 kPa	793.6 ± 1.2
373.15 K, 5000 kPa	796.8 ± 1.3
373.15 K, 10000 kPa	804 ± 1.6
373.15 K, 15000 kPa	810.8 ± 1.8
373.15 K, 20000 kPa	817.2 ± 2.1
373.15 K, 25000 kPa	823.1 ± 2.3
373.15 K, 30000 kPa	828.7 ± 2.5
373.15 K, 35000 kPa	834 ± 2.7
383.15 K, 100 kPa	776.9 ± 1.1
383.15 K, 1000 kPa	778.6 ± 1.1
383.15 K, 2000 kPa	780.4 ± 1.2
383.15 K, 3000 kPa	782.2 ± 1.3
383.15 K, 3100 kPa	782.4 ± 1.3
383.15 K, 5000 kPa	785.5 ± 1.4
383.15 K, 10000 kPa	793.5 ± 1.7
383.15 K, 15000 kPa	800.8 ± 1.9
383.15 K, 20000 kPa	807.5 ± 2.1
383.15 K, 25000 kPa	813.8 ± 2.4
383.15 K, 30000 kPa	819.6 ± 2.6
383.15 K, 35000 kPa	825.2 ± 2.8
393.15 K, 100 kPa	765.1 ± 1.1
393.15 K, 1000 kPa	766.9 ± 1.2
393.15 K, 2000 kPa	768.8 ± 1.2
393.15 K, 3000 kPa	770.8 ± 1.3
393.15 K, 3100 kPa	771 ± 1.3
393.15 K, 5000 kPa	774.5 ± 1.4
393.15 K, 10000 kPa	783.1 ± 1.7
393.15 K, 15000 kPa	790.9 ± 2
393.15 K, 20000 kPa	798 ± 2.2
393.15 K, 25000 kPa	804.6 ± 2.5
393.15 K, 30000 kPa	810.7 ± 2.7
393.15 K, 35000 kPa	816.6 ± 2.9
